Experimental data as given in PubChem BioAssay (NCI).
Several values for one entry are separate records, joined by “and”; a condition that tells them apart may be missing. Equal entries are not always repeated.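 A five-concentration, 48-hour dose response in 96-well plates underlies each endpoint, interpolated linearly between surrounding concentrations. GI50 = concentration required for 50% inhibition of growth. TGI is the concentration that stops growth completely.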

Columns and labels:
Test in all cases: NCI-60 cell line screen, 48 h
BT-549 breast = test system: BT-549 breast
SN12C renal = test system: SN12C renal
A549 NSCLC = test system: A549 NSCLC
SF-295 CNS = test system: SF-295 CNS
COLO 205 colon = test system: COLO 205 colon
NCI/ADR-RES ovarian = test system: NCI/ADR-RES ovarian
M14 melanoma = test system: M14 melanoma
PC-3 prostate = test system: PC-3 prostate
NCI-H460 lung = test system: NCI-H460 lung
HCT-15 colon = test system: HCT-15 colon
MDA-MB-435 = test system: MDA-MB-435
SW-620 colon = test system: SW-620 colon
SK-OV-3 ovarian = test system: SK-OV-3 ovarian
MDA-MB-231 breast = test system: MDA-MB-231 breast
IGROV1 ovarian = test system: IGROV1 ovarian
KM12 colon = test system: KM12 colon
786-0 renal = test system: 786-0 renal
SF-539 CNS = test system: SF-539 CNS
ACHN renal = test system: ACHN renal
SR leukemia = test system: SR leukemia
OVCAR-5 ovarian = test system: OVCAR-5 ovarian
K-562 leukemia = test system: K-562 leukemia
TK-10 renal = test system: TK-10 renal
SNB-19 CNS = test system: SNB-19 CNS
OVCAR-3 ovarian = test system: OVCAR-3 ovarian
T-47D breast = test system: T-47D breast
UACC-257 melanoma = test system: UACC-257 melanoma
A498 renal = test system: A498 renal
OVCAR-8 ovarian = test system: OVCAR-8 ovarian
HL-60(TB) leukemia = test system: HL-60(TB) leukemia
SK-MEL-2 melanoma = test system: SK-MEL-2 melanoma
MDA-N = test system: MDA-N
RXF 393 renal = test system: RXF 393 renal
OVCAR-4 ovarian = test system: OVCAR-4 ovarian
HS 578T breast = test system: HS 578T breast
SF-268 CNS = test system: SF-268 CNS
MOLT-4 leukemia = test system: MOLT-4 leukemia
HOP-62 NSCLC = test system: HOP-62 NSCLC
SK-MEL-28 melanoma = test system: SK-MEL-28 melanoma
NCI-H226 lung = test system: NCI-H226 lung
UO-31 renal = test system: UO-31 renal
CCRF-CEM leukemia = test system: CCRF-CEM leukemia
SK-MEL-5 melanoma = test system: SK-MEL-5 melanoma
NCI-H522 lung = test system: NCI-H522 lung
CAKI-1 renal = test system: CAKI-1 renal
NCI-H23 lung = test system: NCI-H23 lung
LOX IMVI melanoma = test system: LOX IMVI melanoma
HT29 colon = test system: HT29 colon
U251 CNS = test system: U251 CNS
MCF7 breast = test system: MCF7 breast
HOP-92 NSCLC = test system: HOP-92 NSCLC
HCC-2998 colon = test system: HCC-2998 colon
MALME-3M melanoma = test system: MALME-3M melanoma
EKVX NSCLC = test system: EKVX NSCLC
SNB-75 CNS = test system: SNB-75 CNS
UACC-62 melanoma = test system: UACC-62 melanoma
HCT-116 colon = test system: HCT-116 colon
DU-145 prostate = test system: DU-145 prostate

For `COC1C(O)=C2C(=O)OC(C)(O)/C=C/C=C\C=C/C=C/C(c3ccccc3)NC(=O)/C=C/C=C/C=C/C=C/C2(C)C1O` (stereo unspecified), the TGI (BT-549 breast) was 0.168 µM, the TGI (SN12C renal) was 0.0649 µM and 0.0906 µM and the TGI (A549 NSCLC) was 0.0253 µM. For the same molecule, the GI50 (SF-295 CNS) was 0.0296 µM, the TGI (SF-295 CNS) was 0.0747 µM and 0.206 µM and the TGI (COLO 205 colon) was 0.0166 µM. The GI50 (NCI/ADR-RES ovarian) was 0.0142 µM, the TGI (NCI/ADR-RES ovarian) was 0.0535 µM and 0.206 µM and the GI50 (M14 melanoma) was 0.0536 µM. For the same molecule, the TGI (M14 melanoma) was 0.447 µM and 0.19 µM, the TGI (PC-3 prostate) was 0.136 µM and 0.159 µM and the TGI (NCI-H460 lung) was 0.0149 µM and 0.131 µM. The TGI (HCT-15 colon) was 0.0526 µM, the TGI (MDA-MB-435) was 0.142 µM and the TGI (SW-620 colon) was 0.0498 µM. For the same molecule, the TGI (SK-OV-3 ovarian) was 0.134 µM, the TGI (MDA-MB-231 breast) was 0.105 µM and 0.0133 µM and the GI50 (IGROV1 ovarian) was 0.0303 µM. For the same molecule, the TGI (IGROV1 ovarian) was 0.15 µM and 0.168 µM, the TGI (KM12 colon) was 0.117 µM and 0.148 µM and the TGI (786-0 renal) was 0.0234 µM and 0.0419 µM. The GI50 (SF-539 CNS) was 0.0307 µM, the TGI (SF-539 CNS) was 0.112 µM and 0.165 µM and the TGI (ACHN renal) was 0.0323 µM and 0.119 µM. The GI50 (SR leukemia) was 0.0053 µM and 0.0269 µM, the GI50 (OVCAR-5 ovarian) was 0.0649 µM and the TGI (OVCAR-5 ovarian) was 0.566 µM and 0.224 µM. The TGI (K-562 leukemia) was > 100 µM, the TGI (TK-10 renal) was 0.0668 µM and the GI50 (SNB-19 CNS) was 0.0133 µM. For the same molecule, the TGI (SNB-19 CNS) was 0.239 µM and 0.112 µM, the GI50 (OVCAR-3 ovarian) was 0.114 µM and the TGI (OVCAR-3 ovarian) was 0.218 µM and 0.349 µM. The TGI (T-47D breast) was 0.0707 µM, the GI50 (UACC-257 melanoma) was 0.0838 µM and the TGI (UACC-257 melanoma) was 0.17 µM and 0.31 µM. The TGI (A498 renal) was 0.0976 µM, the TGI (OVCAR-8 ovarian) was 0.0241 µM and 0.146 µM and the GI50 (HL-60(TB) leukemia) was 0.113 µM. For the same molecule, the GI50 (SK-MEL-2 melanoma) was 0.0929 µM, the TGI (SK-MEL-2 melanoma) was 0.235 µM and 0.318 µM and the GI50 (MDA-N) was 0.0329 µM. For the same molecule, the TGI (MDA-N) was 0.141 µM and 0.17 µM, the TGI (RXF 393 renal) was 0.0425 µM and the TGI (OVCAR-4 ovarian) was 0.248 µM and 0.0594 µM. The GI50 (HS 578T breast) was 0.0115 µM, the TGI (HS 578T breast) was 0.192 µM and 0.246 µM and the TGI (SF-268 CNS) was 0.156 µM and 0.127 µM. The GI50 (MOLT-4 leukemia) was 0.0697 µM, the GI50 (HOP-62 NSCLC) was 0.041 µM and the TGI (HOP-62 NSCLC) was 0.212 µM and 0.193 µM. The GI50 (SK-MEL-28 melanoma) was 0.257 µM, the TGI (SK-MEL-28 melanoma) was 0.175 µM and 0.927 µM and the TGI (NCI-H226 lung) was 0.156 µM. The GI50 (UO-31 renal) was 0.0252 µM, the TGI (UO-31 renal) was 0.0846 µM and 0.175 µM and the GI50 (CCRF-CEM leukemia) was < 0.001 µM. For the same molecule, the TGI (SK-MEL-5 melanoma) was 0.164 µM, the TGI (NCI-H522 lung) was 0.038 µM and 0.11 µM and the TGI (CAKI-1 renal) was 0.125 µM and 0.0222 µM. For the same molecule, the TGI (NCI-H23 lung) was 0.119 µM and 0.129 µM, the GI50 (LOX IMVI melanoma) was 0.0264 µM and the TGI (LOX IMVI melanoma) was 0.16 µM and 0.234 µM. The TGI (HT29 colon) was 0.0161 µM and 0.0687 µM, the TGI (U251 CNS) was 0.0382 µM and the TGI (MCF7 breast) was 0.0273 µM and 0.169 µM. For the same molecule, the TGI (HOP-92 NSCLC) was 0.00909 µM, the TGI (HCC-2998 colon) was 0.146 µM and 0.048 µM and the TGI (MALME-3M melanoma) was 0.16 µM. For the same molecule, the GI50 (EKVX NSCLC) was 0.0624 µM, the TGI (EKVX NSCLC) was 0.122 µM and 0.237 µM and the GI50 (SNB-75 CNS) was 0.0145 µM. For the same molecule, the TGI (SNB-75 CNS) was 0.131 µM and 0.0786 µM, the TGI (UACC-62 melanoma) was 0.258 µM and the TGI (HCT-116 colon) was 0.0724 µM and 0.0739 µM. The TGI (DU-145 prostate) was 0.0769 µM and 0.123 µM.
